Patent publication US20230142338A1, “THIOPHENYL DERIVATIVES USEFUL FOR MODULATING NUCLEIC ACID SPLICING” (REMIX THERAPEUTICS INC., priority 2020, published 2023)

What was measured:
Format in all cases: cell-based
HTT AJ mRNA = test: Splicing assay (RT-qPCR): increase in HTT alternative junction (AJ) mRNA; details: A673 or K562 cells, 24 hours treatment; concentration having 50% response in AJ mRNA increase
Method: (§1) Compounds described herein were used to modulate RNA transcript abundance in cells. The expression of a target mRNA was measured by detecting the formation of an exon-exon junction in the canonical transcript (CJ). A compound mediated exon-inclusion event was detected by observing an increase in formation of a new junction with an alternative exon (AJ). Real-time qPCR assays were used to detect these splicing switches and interrogate the potency of various compounds towards different target genes. A high-throughput real time quantitative PCR (RT-qPCR) assay was developed to measure these two isoforms of the mRNA (CJ and AJ) for an exemplary gene, HTT, together with a control housekeeping gene, GAPDH or GUSB or PPIA, used for normalization. Briefly, the A673 or K562 cell line was treated with various compounds described herein (e.g., compounds of Formula (I)). After treatment, the levels of the HTT mRNA targets were determined from each sample of cell lysate by cDNA synthesis followed by qPCR.
(§2) The A673 cell line was cultured in DMEM with 10% FBS. Cells were diluted with full growth media and plated in a 96-well plate (15,000 cells in 100 ul media per well). The plate was incubated at 37° C. with 5% CO2 for 24 hours to allow cells to adhere. An 11-point 3-fold serial dilution of the compounds was made in DMSO then diluted in media in an intermediate plate. Compounds were transferred from the intermediate plate to the cell plate with the top dose at a final concentration of 10 uM in the well. Final DMSO concentration was kept at or below 0.25%. The cell plate was returned to the incubator at 37° C. with 5% CO2 for an additional 24 hours.
(§3) The K562 cell line was cultured in IMDM with 10% FBS. For K562, cells were diluted with full growth media and plated in either a 96-well plate (50,000 cells in 50 uL media per well) or a 384-well plate (8,000-40,000 cells in 45 uL media per well). An 11-point 3-fold serial dilution of the compounds were made in DMSO then diluted in media in an intermediate plate. Compound was transferred from the intermediate plate to the cell plate with the top dose at a final concentration of 10 uM in the well. Final DMSO concentration was kept at or below 0.25%. Final volume was 100 uL for 96-well plate and 50 uL for 384-well plate. The cell plate was then placed in an incubator at 37° C. with 5% CO2 for 24 hours.
(§4) The cells were then gently washed with 50 uL-100 uL cold PBS before proceeding to addition of lysis buffer. 30 uL-50 uL of room temperature lysis buffer with DNAse I (and optionally RNAsin) was added to each well. Cells were shaken/mixed thoroughly at room temperature for 5-10 minutes for lysis to take place and then 3 uL-5 uL of room temperature stop solution was added and wells were shaken/mixed again. After 2-5 minutes, the cell lysate plate was transferred to ice for RT-qPCR reaction setup. The lysates could also be frozen at −80° C. for later use.
(§5) In some cases, a direct lysis buffer was used. An appropriate volume of 3× lysis buffer (10 mM Tris, 150 mM NaCl, 1.5%-2.5% Igepal and 0.1-1 U/uL RNAsin, pH 7.4) was directly added to either K562 or A673 cells in media and mixed by pipetting 3 times. The plates were then incubated at room temperature with shaking/rocking for 20-50 minutes to allow for lysis to take place. After this time, the cell lysate plate was transferred to ice to set up for the RT-qPCR reactions. The lysates could also be frozen at −80° C. for later use.
(§6) To set up 10 uL RT-qPCR reactions, cell lysates were transferred to 384-well qPCR plates containing the master mix according to the table below. The plates were sealed, gently vortexed, and spun down before the run. The volumes were adjusted accordingly in some instances where the reaction was carried in 20 uL. The table below summarizes the components of the RT-qPCR reactions:
(§7) The RT-qPCR reaction was performed using a QuantStudio (ThermoFisher) under the following fast cycling conditions. […]

Target C CJ mRNA = test: Gene panel canonical junction qPCR assay: Target C; details: Table 3, concentration having 50% response in CJ decrease, read-out: Target C IC50 (decrease in CJ mRNA levels)
Method: as §1, §2, §3, §4, §5, §6, §7

HTT CJ mRNA [1] = test: Splicing assay (RT-qPCR): decrease in HTT canonical junction (CJ) mRNA; details: A673 or K562 cells, 24 hours treatment; concentration having 50% response in CJ mRNA decrease
Method: as §1, §2, §3, §4, §5, §6, §7

SMN2 CJ mRNA = test: Gene panel canonical junction qPCR assay: SMN2; details: Table 3, concentration having 50% response in CJ decrease, read-out: SMN2 IC50 (decrease in CJ mRNA levels)
Method: as §1, §2, §3, §4, §5, §6, §7

HTT CJ mRNA [2] = test: Gene panel canonical junction qPCR assay: HTT; details: Table 3, concentration having 50% response in CJ decrease, read-out: HTT IC50 (decrease in CJ mRNA levels)
Method: as §1, §2, §3, §4, §5, §6, §7

| SMILES | AC50 (HTT AJ mRNA) [nM] | IC50 (Target C CJ mRNA) [nM] | AC50 (HTT CJ mRNA [1]) [nM] | IC50 (SMN2 CJ mRNA) [nM] | IC50 (HTT CJ mRNA [2]) [nM] |
| --- | --- | --- | --- | --- | --- |
| Cc1nc2c(F)cc(NC(=O)c3sc(C4CCNCC4)cc3F)cc2s1 [Compound 185, 3-fluoro-N-(4-fluoro-2-methyl-1,3-benzothiazol-6-yl)-5-(piperidin-4-yl)-thiophene-2-carboxamide] | 1000 to 10000 | 1000 to 10000 | 100 to 1000 | < 100 | 100 to 1000 |
| Cc1cn2cc(NC(=O)c3sc(C4CCNCC4)cc3F)ncc2n1 [Compound 179, 3-fluoro-N-[2-methylimidazo[1,2-a]pyrazin-6-yl]-5-(piperidin-4-yl)thiophene-2-carboxamide] | 1000 to 10000 | 1000 to 10000 | 100 to 1000 | 1000 to 10000 | 100 to 1000 |
| Cc1cn2cc(NC(=O)c3sc(N4CCN(C)CC4)cc3F)cc(F)c2n1 [Compound 127, 3-fluoro-N-[8-fluoro-2-methylimidazo [1,2-a]pyridin-6-yl]-5-(4-methylpiperazin-1-yl) thiophene-2-carboxamide] | > 10000 | < 100 | > 10000 | 100 to 1000 | > 10 |
| Cc1cn2cc(NC(=O)c3cc(Cl)c(C4CCNCC4)s3)cc(F)c2n1 [Compound 193, 4-chloro-N-[8-fluoro-2-methylimidazo[1,2-a]pyridin-6-yl]-5-(piperidin-4-yl) thiophene-2-carboxamide] | > 10000 | > 10 | > 10000 | 1000 to 10000 | > 10 |
| Cc1cn2cc(NC(=O)c3cc(Cl)c(N4CCNC(C)C4)s3)cc(F)c2n1 (centres unmarked) [Compound 187] | > 10000 | > 10 | > 10000 | > 10 | > 10 |
| Cc1cn2cc(NC(=O)c3sc(N4CCC(N5CCCC5)C4)cc3F)cc(F)c2n1 (centres unmarked) [Compound 136, 5-[[1,3′-bipyrrolidin]-1′-yl]-3-fluoro-N-[8-fluoro-2-methylimidazo[1,2-a]pyridin-6-yl]thiophene-2-carboxamide] | > 10000 | > 10 | > 10000 | 100 to 1000 | > 10 |
| Cc1cn2cc(NC(=O)c3sc([C@@H]4CCN[C@H](C)C4)cc3F)cc(F)c2n1 [Compound 114, 3-fluoro-N-[8-fluoro-2-methylimidazo[1,2-a]pyridin-6-yl]-5-[(2R,4R)-2-methylpiperidin-4-yl]thiophene-2-carboxamide] | 100 to 1000 | 1000 to 10000 | 100 to 1000 | < 100 | 100 to 1000 |
| Cc1cn2cc(NC(=O)c3sc(N4CC5(CNC5)C4)cc3F)cc(F)c2n1 [Compound 134, 5-[2,6-diazaspiro[3.3]heptan-2-yl]-3-fluoro-N-[8-fluoro-2-methylimidazo[1,2-a]pyridine-6-yl]thiophene-2-carboxamide] | 1000 to 10000 | 1000 to 10000 | 1000 to 10000 | 100 to 1000 | 1000 to 10000 |
| Cc1cn2cc(NC(=O)c3sc(N4CCNC(C)C4)cc3F)ncc2n1 (centres unmarked) [Compound 167, 3-fluoro-N-[2-methylimidazo[1,2-a]pyrazin-6-yl]-5-(3-methylpiperazin-1-yl)thiophene-2-carboxamide] | > 10000 | > 10 | > 10000 | 100 to 1000 | > 10 |
| Cc1cn2cc(NC(=O)c3sc(N4CCC(N(C)C)C4)cc3F)cc(F)c2n1 (centres unmarked) [Compound 138, 5-[3-(dimethylamino)pyrrolidin-1-yl]-3-fluoro-N-[8-fluoro-2-methylimidazo[1,2-a]pyridin-6-yl]thiophene-2-carboxamide] | > 10000 | > 10 | 1000 to 10000 | 100 to 1000 | 1000 to 10000 |
| Cc1cn2cc(NC(=O)c3sc(C4CCNCC4)cc3F)cc(C)c2n1 [Compound 180, N-[2,8-dimethylimidazo[1,2-a]pyridin-6-yl]-3-fluoro-5-(piperidin-4-yl)thiophene-2-carboxamide] | 1000 to 10000 | 1000 to 10000 | 100 to 1000 | < 100 | 100 to 1000 |
| Cc1cn2cc(NC(=O)c3sc(N4CCN5CCCC5C4)cc3F)cc(F)c2n1 (centres unmarked) [Compound 139, 3-fluoro-N-[8-fluoro-2-methylimidazo[1,2-a]pyridin-6-yl]-5-[hexahydro-1H-pyrrolo[1,2-a]pyrazin-2-yl] thiophene-2-carboxamide] | > 10000 | > 10 | > 10000 | 1000 to 10000 | > 10 |
| Cc1cn2cc(NC(=O)c3sc(C4CCN(C)CC4)cc3F)cc(F)c2n1 [Compound 145, 3-fluoro-N-[8-fluoro-2-methylimidazo [1,2-a]pyridin-6-yl]-5-(1-methylpiperidin-4-yl)thiophene-2-carboxamide] | 1000 to 10000 | 1000 to 10000 | 1000 to 10000 | 100 to 1000 | 1000 to 10000 |
| Cc1nc2c(F)cc(NC(=O)c3sc(N4CCNC(C)C4)cc3F)cc2o1 (centres unmarked) [Compound 164, 3-fluoro-N-(4-fluoro-2-methyl-1,3-benzoxazol-6-yl)-5-(3-methylpiperazin-1-yl)thiophene-2-carboxamide] | 1000 to 10000 | 100 to 1000 | 1000 to 10000 | 100 to 1000 | 1000 to 10000 |
| Cc1cn2nc(NC(=O)c3sc([C@H]4CCN[C@@H](C)C4)cc3F)cc(C)c2n1 [Compound 102, N-[2,8-dimethylimidazo[1,2-b]pyridazin-6-yl]-3-fluoro-5-[(2S,4S)-2-methylpiperidin-4-yl] thiophene-2-carboxamide] | 1000 to 10000 | 1000 to 10000 | 100 to 1000 | 100 to 1000 | 100 to 1000 |
| Cc1nc2c(F)cc(NC(=O)c3sc(C4CCNCC4)cc3F)cc2o1 [Compound 184, 3-fluoro-N-(4-fluoro-2-methyl-1,3-benzoxazol-6-yl)-5-(piperidin-4-yl)thiophene-2-carboxamide] | 100 to 1000 | 100 to 1000 | 100 to 1000 | < 100 | 100 to 1000 |
| CC1CN(c2cc(F)c(C(=O)Nc3ccc4cn(C)nc4c3)s2)CCN1 (centres unmarked) [Compound 162, 3-fluoro-N-(2-methylindazol-6-yl)-5-(3-methylpiperazin-1-yl)thiophene-2-carboxamide] | > 10000 | > 10 | > 10000 | > 10 | > 10 |
| Cc1cn2cc(NC(=O)c3sc(N4CCC(NC(C)(C)C)C4)cc3F)cc(F)c2n1 (centres unmarked) [Compound 137, 5-[3-(tert-butylamino)pyrrolidin-1-yl]-3-fluoro-N-[8-fluoro-2-methylimidazo[1,2-a]pyridin-6-yl]thiophene-2-carboxamide] | > 10000 | 100 to 1000 | > 10000 | > 10 | > 10 |
| Cc1cn2nc(NC(=O)c3sc(C4CCNCC4)cc3F)cc2c(C)n1 [Compound 191, N-[4,6-dimethylpyrazolo[1,5-a]pyrazin-2-yl]-3-fluoro-5-(piperidin-4-yl)thiophene-2-carboxamide] | 1000 to 10000 | 1000 to 10000 | 1000 to 10000 | 100 to 1000 | 1000 to 10000 |
